For assay [1], the target named is HCV NS3/4A protease complex (Hepatitis C virus genotype 1a, UniProt P27958, C1454S/C1711G). The experiment in a line: Recombinant HCV NS3/4A protease complex FRET peptide assay (strain not stated). The assay is classed as biochemical. As to conditions: IC50, NS3/4A protease enzyme assay, strain not stated; activity ranges.
Assay [2] has as its system HCV replicon in Huh7 cells. The experiment in a line: HCV replicon cell-based assay. Further details: species or system HCV strain 1B. As to conditions: Hepatitis C virus, Huh-7, 96 h; HCV replicon, Huh7 cells, 4 days; activity ranges; read-out: EC50. An excerpt:
An HCV replicon whole cell system was established as described by Lohmann V, Korner F, Koch J, Herian U, Theilmann L, Bartenschlager R., Science 285(5424):110-3 (1999). This system enabled us to evaluate the effects of our HCV Protease compounds on HCV RNA replication. Briefly, using the HCV strain 1B sequence described in the Lohmann paper (Assession number:AJ238799), an HCV cDNA was generated encoding the 5′ internal ribosome entry site (IRES), the neo gene, the EMCV-IRES and the HCV nonstructural proteins, NS3-NS5B, and 3′ NTR. […] Resulting cell lines were characterized for positive and negative RNA production and protein production over time.
Huh7 cells, constitutively expressing the HCV replicon, were grown in DMEM containing 10% FCS (Fetal calf serum) and 1 mg/ml G418 (Gibco-BRL). Cells were seeded the night before (1.5×10^4 cells/well) in 96-well tissue-culture sterile plates. Compound was prepared in DMEM containing 4% FCS, 1:100 Penicillin/Streptomysin, 1:100 L-glutamine and 0.5% DMSO. Compound/DMSO mixes were added to the cells and incubated for 4 days at 37° C. After 4 days, cells were either lyzed using the Rneasy kit (Qiagen) to isolate and purify RNA for an EC50 determination or assessed for cytotoxicity using alamar Blue (Trek Diagnotstic Systems) for a CC50 reading. For an EC50 determination, purified total RNA was normalized using RiboGreen (Jones L J, Yue S T, Cheung C Y, Singer V L, Anal. Chem., 265(2):368-74 (1998)) and relative quantitation of HCV RNA expression assessed using the Taqmann procedure (Kolykhalov A A, Mihalik K, Feinstone S M, Rice C M, Journal of Virology 74, 2046-2051 (2000)). Briefly, RNA made to a volume of 5 μl (≦1 ng) was added to a 20 μl Ready-Mix containing the following: 5×EZ rTth buffer, 3 mM MnOAc2, 3 mM dNTPs, 200 nM forward primer, 600 nM reverse primer, 100 nM probe and rTth polymerase. Samples containing known concentrations of HCV RNA transcript were run as standards. Using the following cycling protocol (95° C., 1 min; 60° C., 0.5 min; 95° C., 2 min; 40 cycles of 94° C., 0.5 min, 60° C.; 1 min; and completing with 60° C., 10 min), HCV RNA expression was quantitated as described in the Perkin Elmer manual. The toxicity of compound (CC50) was determined by adding 1/10th volume of alamar Blue to the media incubating the cells. After 4 hr, the fluorescence signal from each well was read, with an excitation wavelength at 530 nm and an emission wavelength of 580 nm, using the Cytofluor Series 4000 (Perspective Biosystems).

16 molecules from US6872805B2 (Bristol-Myers Squibb Company, priority 2000, dated 2005) can be followed below.

Bounds are passed on as bounds.

Sequence of HCV NS3/4A protease complex (P27958 1027-1711, stated change not applied): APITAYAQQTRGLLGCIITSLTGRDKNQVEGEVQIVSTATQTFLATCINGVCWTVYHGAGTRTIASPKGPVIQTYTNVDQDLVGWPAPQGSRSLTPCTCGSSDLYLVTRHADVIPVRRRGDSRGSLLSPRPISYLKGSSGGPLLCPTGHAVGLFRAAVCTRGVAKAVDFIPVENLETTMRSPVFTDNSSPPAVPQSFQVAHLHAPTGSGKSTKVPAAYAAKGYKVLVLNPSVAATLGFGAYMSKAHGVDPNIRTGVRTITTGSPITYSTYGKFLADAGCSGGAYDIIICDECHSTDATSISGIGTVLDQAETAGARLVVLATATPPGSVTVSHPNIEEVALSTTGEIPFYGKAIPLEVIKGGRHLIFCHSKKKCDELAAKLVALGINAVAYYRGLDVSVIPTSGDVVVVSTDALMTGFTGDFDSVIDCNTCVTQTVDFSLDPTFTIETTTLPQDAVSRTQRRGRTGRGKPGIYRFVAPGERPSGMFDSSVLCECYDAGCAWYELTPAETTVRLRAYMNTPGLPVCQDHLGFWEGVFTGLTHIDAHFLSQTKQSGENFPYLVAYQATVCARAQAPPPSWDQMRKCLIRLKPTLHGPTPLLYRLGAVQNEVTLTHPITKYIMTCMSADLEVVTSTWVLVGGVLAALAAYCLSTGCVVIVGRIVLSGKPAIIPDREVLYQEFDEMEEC
Sequence of HCV NS3/4A protease complex (P27958 1027-1711, stated change not applied): as above

By IC50 is commonly meant the concentration at which inhibition is half-maximal. The EC50 is the concentration at which the effect is half-maximal. On to `C=CC1CC1(NC(=O)C1CC(Oc2cc(-c3ccccc3)nc3cc(OC)ccc23)CN1C(=O)C(NC(=O)C1C2CC1C2)C(C)(C)C)C(=O)NS(=O)(=O)C1CC1` (stereo not drawn) [Compound 105, 1-{2S-[(bicyclo[1.1.1]pentane-2-carbonyl)-amino]-3,3-dimethyl-butyryl}-4R-(7-methoxy-2-phenyl-quinolin-4-yloxy)-pyrrolidine-2S-carboxylic acid (1R-cyclopropanesulfonylaminocarbonyl-2S-vinylcyclopropyl)amide], for which the half-maximal inhibitory concentration (IC50) in assay [1] was under 50 nM. Moreover, in assay [2], the EC50 was under 50 nM.
In the case of `C=CC1C[C@]1(NC(=O)[C@@H]1C[C@@H](Oc2cc(-c3ccccc3)nc3cc(OC)ccc23)CN1C(=O)[C@@H](NC(=O)O[C@H]1CCOC1)C(C)(C)C)C(=O)NS(=O)(=O)C1CC1` (stereo partly drawn) [Compound 18, {1-[2-(1-Cyclopropanesulfonylaminocarbonyl-2-vinylcyclopropylcarbamoyl)-4-(7-methoxy-2-phenyl-quinolin-4-yloxy)-pyrrolidine-1-carbonyl]-2,2-dimethyl-propyl}carbamic acid tetrahydrofuran-3(S)-yl ester], the half-inhibitory concentration (IC50) in assay [1] is under 50 nM. Further, the EC50 in assay [2] was under 50 nM.
Consider `C=C[C@@H]1C[C@]1(NC(=O)C1C[C@@H](Oc2cc(-c3ccccc3)nc3cc(OC)ccc23)CN1C(=O)[C@@H](NC(=O)c1ccco1)C(C)(C)C)C(=O)NS(=O)(=O)C1CC1` (stereo partly drawn) [Compound 110, 1-{2S-[(furan-2-carbonyl)-amino]-3,3-dimethyl-butyryl}-4R-(7-methoxy-2-phenyl-quinolin-4-yloxy)-pyrrolidine-2S-carboxylic acid (1R-cyclopropanesulfonylaminocarbonyl-2S-vinyl-cyclopropyl)-amide], for which the IC50 in assay [1] was under 50 nM. The EC50 in assay [2] is under 500 nM.
The matching figures for `C=CC1C[C@]1(NC(=O)[C@@H]1C[C@@H](Oc2cc(-c3ccccc3)nc3cc(OC)ccc23)CN1C(=O)[C@@H](NC(=O)OC(C)(C)C)C(C)(C)C)C(=O)NS(=O)(=O)C1CCC1` (stereo in doubt) [Compound 11, {1-[2-(1-Cyclobutanesulfonylaminocarbonyl-2-vinylcyclo-propylcarbamoyl)-4-(7-methoxy-2-phenylquinolin-4-yloxy)-pyrrolidine-1-carbonyl]-2,2-dimethylpropyl}carbamic acid tert-butyl ester]: under 50 nM and under 50 nM.
For `COc1ccc2c(OC3C[C@@H](C(=O)NC4(C(=O)NS(=O)(=O)C5CC5)CC45CCC5)N(C(=O)[C@@H](NC(=O)OC(C)(C)C)C(C)(C)C)C3)cc(-c3ccccc3)nc2c1` (some centres unmarked) [Compound 136, {1-[2-(1-Cyclopropanesulfonylaminocarbonyl-spiro[2.3]hex-1-ylcarbamoyl)-4-(7-methoxy-2-phenyl-quinolin-4-yloxy)-pyrrolidine-1-carbonyl]-2,2-dimethyl-propyl}-carbamic acid tert-butyl ester] the same measures were under 500 nM and under 5000 nM.
Regarding `C=C[C@@H]1C[C@]1(NC(=O)C1C[C@@H](Oc2cc(-c3ccccc3)nc3cc(OC)ccc23)CN1C(=O)[C@@H](NC(=O)COC(C)=O)C(C)(C)C)C(=O)NS(=O)(=O)C1CC1` (stereo partly drawn) [Compound 106, acetic acid {1S-[2S-(1R-cyclopropanesulfonylaminocarbonyl-2S-vinyl-cyclopropylcarbamoyl)-4R-(7-methoxy-2-phenyl-quinolin-4-yloxy)-pyrrolidine-1-carbonyl]-2,2-dimethyl-propylcarbamoyl}-methyl ester], the concentration for half-maximal inhibition (IC50) in assay [1] is under 50 nM. Further, the EC50 in assay [2] was under 500 nM.
For `C=C[C@@H]1C[C@]1(NC(=O)C1CC(Oc2cc(-c3ccccc3)nc3cc(OC)ccc23)CN1C(=O)[C@@H](NC(=O)OC)C(C)(C)C)C(=O)NS(=O)(=O)C1CC1` (stereo partly drawn) [Compound 113, {1S-[2S-(1R-cyclopropanesulfonylaminocarbonyl-2S-vinyl-cyclopropylcarbamoyl)-4R-(7-methoxy-2-phenyl-quinolin-4-yloxy)-pyrrolidine-1-carbonyl]-2,2-dimethyl-propyl}carbamic acid methyl ester] the same measures were under 50 nM and under 50 nM.
For `C=CC1C[C@]1(NC(=O)[C@@H]1C[C@@H](Oc2cc(-c3ccccc3)nc3cc(OC)ccc23)CN1C(=O)[C@@H](NC(=O)OC(C)(C)C)C(C)(C)C)C(=O)NS(=O)(=O)CC1CCC1` (stereo in doubt) [Compound 15, {1-[2-(1-Cyclobutylmethanesulfonylaminocarbonyl-2-vinylcyclopropylcarbamoyl)-4-(7-methoxy-2-phenylquinolin-4-yloxy)pyrrolidine-1-carbonyl]-2,2-dimethylpropyl}-carbamic acid tert-butyl ester] the same measures were under 500 nM and under 5000 nM.
The matching figures for `C=C[C@@H]1C[C@]1(NC(=O)C1C[C@@H](Oc2cc(-c3ccccc3)nc3cc(OC)ccc23)CN1C(=O)[C@@H](NC(=O)C1(O)CC1)C(C)(C)C)C(=O)NS(=O)(=O)C1CC1` (stereo partly drawn) [Compound 111, 1-{2S-[(1-hydroxy-cyclopropanecarbonyl)-amino]-3,3-dimethyl-butyryl}-4R-(7-methoxy-2-phenyl-quinolin-4-yloxy)pyrrolidine-2S-carboxylic acid (1R-cyclopropanesulfonylaminocarbonyl-2S-vinylcyclopropyl)amide]: under 50 nM and under 5000 nM.
As for `C=CC1C[C@]1(NC(=O)[C@@H]1C[C@@H](Oc2cc(-c3ccccc3)nc3cc(OC)ccc23)CN1C(=O)C(NC(=O)OC(C)(C)C)C(C)(C)C)C(=O)NS(=O)(=O)c1ccccc1C(=O)OC` (some centres unmarked) [Compound 57], the 50% inhibitory concentration (IC50) in assay [1] is under 500 nM. The EC50 in assay [2] is under 500 nM.
On to `C=CCC[C@](C)(NC(=O)[C@@H]1C[C@@H](Oc2cc(-c3ccccc3)nc3cc(OC)ccc23)CN1C(=O)C(NC(=O)OC(C)(C)C)C(C)(C)C)C(=O)NS(=O)(=O)c1ccccc1` (some centres unmarked) [Compound 38], for which the IC50 in assay [1] is under 50 nM. The EC50 in assay [2] is under 50 nM.
Turning to `C=C1C[C@]1(NC(=O)[C@@H]1C[C@@H](Oc2cc(-c3ccccc3)nc3cc(OC)ccc23)CN1C(=O)C(NC(=O)OC(C)(C)C)C(C)(C)C)C(=O)NS(=O)(=O)c1cccc(Br)c1` (some centres unmarked) [Compound 55], the 50% inhibitory concentration (IC50) in assay [1] was under 50 nM. Moreover, the EC50 in assay [2] was under 50 nM.
As to `C=CC1C[C@]1(NC(=O)[C@@H]1C[C@@H](Oc2cc(-c3ccccc3)nc3cc(OC)ccc23)CN1C(=O)C(NC(=O)OC(C)(C)C)C(C)(C)C)C(=O)NS(=O)(=O)c1ccc(C(C)(C)C)cc1` (some centres unmarked) [Compound 60], in assay [1], the IC50 is under 500 nM. Besides, in assay [2], the EC50 is under 500 nM.
As to `C=CC1C[C@]1(NC(=O)[C@@H]1C[C@@H](Oc2cc(-c3ccccc3)nc3cc(OC)ccc23)CN1C(=O)[C@@H](NC(=O)OC(C)(C)C)C(C)(C)C)C(=O)NS(=O)(=O)CC` (some centres unmarked) [Compound 25], the concentration for half-maximal inhibition (IC50) in assay [1] was under 50 nM. Besides, the EC50 in assay [2] was under 500 nM.
The matching figures for `C=CC1C[C@]1(NC(=O)[C@@H]1C[C@@H](Oc2cc(-c3ccccc3)nc3cc(OC)ccc23)CN1C(=O)[C@@H](NC(=O)OC(C)(C)C)C(C)(C)C)C(=O)NS(=O)(=O)C1CC1` (stereo in doubt) [Compound 10, {1-[2-(1-Cyclopropanesulfonylaminocarbonyl-2-vinylcyclopropylcarbamoyl)-4-(7-methoxy-2-phenylquinolin-4-yloxy)-pyrrolidine-1-carbonyl]-2,2-dimethylpropyl}carbamic acid tert-butyl ester]: under 50 nM and under 50 nM.
The matching figures for `C=C[C@@H]1C[C@]1(NC(=O)C1CC(Oc2cc(-c3ccccc3)nc3cc(OC)ccc23)CN1C(=O)[C@@H](NC(=O)OCCF)C(C)(C)C)C(=O)NS(=O)(=O)C1CC1` (stereo partly drawn) [Compound 122, {1S-[2S-(1R-cyclopropanesulfonylaminocarbonyl-2S-vinyl-cyclopropylcarbamoyl)-4R-(7-methoxy-2-phenyl-quinolin-4-yloxy)-pyrrolidine-1-carbonyl]-2,2-dimethyl-propyl}-carbamic acid 2-fluoroethyl ester]: under 50 nM and under 50 nM.
